Key:
Lucilia cuprina = Lucilia cuprina test (LUCICU); type: in vivo; conditions: application rate of 100 ppm; L1 larvae; after 2 days
Procedure: Lucilia cuprina Test (LUCICU)
• Solvent: dimethyl sulphoxide
To prepare an appropriate active ingredient formulation, 10 mg of active ingredient are mixed with 0.5 ml of dimethyl sulphoxide, and the concentrate is diluted with water to the desired concentration.
About 20 L1 larvae of the Australian sheep blowfly (Lucilia cuprina) are transferred into a test vessel containing minced horsemeat and the active ingredient preparation of the desired concentration.
After 2 days, the kill in % is determined 100% means that all the larvae have been killed; 0% means that none of the larvae have been killed.

Meloidogyne incognita = Meloidogyne incognita test (MELGIN); type: in vivo; conditions: application rate of 20 ppm; after 14 days, by formation of galls
Procedure: Meloidogyne Incognita Test (MELGIN)
• Solvent: 125.0 parts by weight of acetone
To produce an appropriate active ingredient formulation, 1 part by weight of active ingredient is mixed with the specified amounts of solvent and the concentrate is diluted to the desired concentration with water.
Vessels are filled with sand, active ingredient solution, an egg/larvae suspension of the southern root-knot nematode (Meloidogyne incognita) and lettuce seeds. The lettuce seeds germinate and the plants develop. The galls develop on the roots
After 14 days, the nematicidal efficacy in % is determined by the formation of galls. 100% means that no galls have been found; 0% means that the number of galls on the treated plants corresponds to the untreated control.

[1] = log P by HPLC (OECD Guideline 117), method [b] neutral range; type: physicochemical; conditions: HPLC; for chromatographic logP: reversed-phase C18 HPLC column, neutral range, pH 7.8; for logP[b]: method [b] neutral range
Procedure: (§1) The log P values were determined analogously to OECD Guideline 117 (EC Directive 92/69/EEC) by HPLC (high-performance liquid chromatography) using reversed-phase columns (C 18), by the following methods:
[b] The LC-MS determination in the neutral range is effected at pH 7.8 with 0.001 molar aqueous ammonium hydrogencarbonate solution and acetonitrile as eluents; linear gradient from 10% acetonitrile to 95% acetonitrile.

Tetranychus urticae = Tetranychus urticae spray test, OP-resistant (TETRUR); type: in vivo; conditions: application rate of 500 g/ha, after 6 days; for pest or weed control at 500 g/ha: Tetranychus urticae, 144 h, read-out: efficacy
How it was run: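 Bean leaf discs infested with all stages of an OP-resistant Tetranychus urticae strain sprayed with compound in acetone/DMF with alkylaryl polyglycol ether emulsifier, diluted in water. Efficacy in % scored after 6 days; 100% means all mites killed.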

[2] = log P by HPLC (OECD Guideline 117), method [a] acidic range; type: physicochemical; conditions: for chromatographic logP: reversed-phase C18 HPLC column, acidic range; for logP[a]: HPLC, method [a] acidic range
Procedure: as §1
[a] The LC-MS determination in the acidic range is effected at pH 2.7 with 0.1% aqueous formic acid and acetonitrile (contains 0.1% formic acid) as eluents; linear gradient from 10% acetonitrile to 95% acetonitrile.

Boophilus microplus = Boophilus microplus injection test (BOOPMI Inj); type: in vivo; conditions: application rate of 20 μg/animal, assessed after 7 days by laying of fertile eggs
How it was run: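 Engorged adult female ticks (5 per test) injected in the abdomen with 1 μl of compound solution in DMSO, then held in a climate-controlled room. Efficacy scored after 7 days from fertile egg laying, with 100% meaning no fertile eggs and 0% all eggs fertile.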

Phaedon cochleariae = Phaedon cochleariae spray test (PHAECO); type: in vivo; conditions: application rate of 500 g/ha, after 7 days
How it was run: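 Chinese cabbage (Brassica pekinensis) leaf discs sprayed with acetone/DMF/emulsifier formulation diluted in emulsifier-containing water, dried, then populated with mustard beetle larvae. Efficacy scored after 7 days as % larvae killed (100% = all killed, 0% = none).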

Myzus persicae = Myzus persicae spray test (MYZUPE); type: in vivo; conditions: after 6 days
Procedure: Myzus persicae—Spray Test (MYZUPE)
• Solvent: 78 parts by weight of acetone • 1.5 parts by weight of dimethylformamide • Emulsifier: 0.5 part by weight of alkylaryl polyglycol ether
To produce an appropriate active ingredient formulation, 1 part by weight of active ingredient is mixed with the specified amounts of solvent and emulsifier, and the concentrate is diluted to the desired concentration with emulsifier-containing water.
Discs of Chinese cabbage leaves (Brassica pekinensis) infested by all stages of the green peach aphid (Myzus persicae) are sprayed with an active ingredient formulation of the desired concentration.
After 6 days, the activity in % is determined 100% means that all the aphids have been killed; 0% means that none of the aphids have been killed.

Spodoptera frugiperda = Spodoptera frugiperda spray test (SPODFR); type: in vivo; conditions: application rate of 500 g/ha; after 7 days
Procedure: Spodoptera frugiperda—Spray Test (SPODFR)
• Solvent: 78.0 parts by weight of acetone • 1.5 parts by weight of dimethylformamide • Emulsifier: alkylaryl polyglycol ether
To produce an appropriate active ingredient formulation, 1 part by weight of active ingredient is dissolved using the specified parts by weight of solvent and made up with water containing an emulsifier concentration of 1000 ppm until the desired concentration is attained. To produce further test concentrations, the preparation is diluted with emulsifier-containing water.
Leaf discs of maize (Zea mays) are sprayed with an active ingredient formulation of the desired concentration and, after drying, populated with caterpillars of the armyworm (Spodoptera frugiperda).
After 7 days, the activity in % is determined 100% means that all caterpillars have been killed; 0% means that none of the caterpillars have been killed.

[3] = pH 2.7, HPLC method [a], read-out: logP[a]
[4] = pH 2.7, HPLC, pH 2.7, read-out: log P[a]

| SMILES | chromatographic logP [1] | chromatographic logP [2, 3] | chromatographic logP [2, 4] | logP[b] [1] | logP[a] [2] | efficacy (kill) (Lucilia cuprina) | nematicidal efficacy (Meloidogyne incognita) | pest or weed control at 500 g/ha (Tetranychus urticae) | efficacy (Tetranychus urticae) | efficacy (Boophilus microplus) | efficacy (Phaedon cochleariae) | efficacy (Myzus persicae; application rate of 500 g/ha) | pest or weed control at 500 g/ha (Phaedon cochleariae; Phaedon cochleariae, 168 h, read-out: efficacy) | efficacy (Myzus persicae; application rate of 100 g/ha) | efficacy (Spodoptera frugiperda) |
| --- | --- | --- | --- | --- | --- | --- | --- | --- | --- | --- | --- | --- | --- | --- | --- |
| Cc1cc(F)c(-n2ncn(C(C)C)c2=O)cc1SCC(F)(F)F [Example 4, 2-{2-Fluoro-4-methyl-5-[(2,2,2-trifluoroethyl)sulphanyl]phenyl}-4-isopropyl-2,4-dihydro-3H-1,2,4-triazol-3-one] | 2.97 | 2.82 | 2.82 | – | – | 80% | 90% | 90% | – | – | – | – | – | – | – |
| COc1nn(-c2cc([S+]([O-])CC(F)(F)F)c(C)cc2F)c(=O)n1C1CC1 (stereo not drawn) [Example 104] | – | – | – | 2.08 | 2.13 | – | 90% | – | 100% | 100% | – | – | – | – | – |
| COc1nn(-c2cc([S+]([O-])CC(F)(F)F)c(Cl)cc2Cl)c(=O)n1C1CC1 (stereo not drawn) [Example 106] | – | – | – | 2.61 | 2.65 | – | 90% | – | 100% | 100% | 100% | – | – | – | – |
| Cc1cc(F)c(-n2nc(OCC(F)(F)F)n(C)c2=O)cc1[S+]([O-])CC(F)(F)F (stereo not drawn) [Example 160] | – | – | – | 2.38 | 2.52 | – | 100% | – | 100% | 100% | – | – | – | – | – |
| COC1=CC(=O)N(c2cc([S+]([O-])CC(F)(F)F)c(C)cc2F)C1 (stereo not drawn) [Example 311, 1-{2-Fluoro-4-methyl-5-[(2,2,2-trifluoroethyl)sulphinyl]phenyl}-4-methoxy-1,5-dihydro-2H-pyrrol-2-one] | 1.84 | 1.83 | 1.83 | – | – | – | – | 100% | – | 100% | – | 90% | 100% | – | – |
| COC1=CC(=O)N(c2ccc(C#N)c(SCC(F)(F)F)c2)C1 [Example 320] | – | – | – | 2.43 | 2.45 | – | – | – | – | – | 100% | 90% | – | – | – |
| Cc1cc(F)c(N2CC(OCC3CC3)=CC2=O)cc1SCC(F)(F)F [Example 331] | – | – | – | 3.58 | 3.64 | – | 90% | – | 90% | – | 83% | – | – | – | – |
| Cc1cc(F)c(N2CC(OCC3CC3)=CC2=O)cc1[S+]([O-])CC(F)(F)F (stereo not drawn) [Example 332] | – | – | – | 2.50 | 2.55 | – | 90% | – | 90% | – | 83% | – | – | – | – |
| CCCn1c(OC)nn(-c2cc([S+]([O-])CC(F)(F)F)c(C)cc2F)c1=O (stereo not drawn) [Example 411] | – | – | – | 2.41 | 2.44 | – | – | – | 100% | 100% | 100% | – | – | 90% | 100% |
| COc1nn(-c2cc([S+]([O-])CC(F)(F)F)c(C)cc2F)c(=O)n1CC(F)(F)F (stereo not drawn) [Example 415] | – | – | – | 2.45 | 2.48 | – | 100% | – | 90% | 100% | – | – | – | – | – |
| C=CCn1c([S+]([O-])CCC)nn(-c2cc([S+]([O-])CC(F)(F)F)c(C)cc2F)c1=O (stereo not drawn) [Example 423] | – | – | – | 2.37 | 2.34 | – | – | – | 90% | 100% | – | 90% | – | – | – |

Continued, in another order:

| chromatographic logP [1] | chromatographic logP [2, 3] | chromatographic logP [2, 4] | logP[b] [1] | logP[a] [2] | SMILES | efficacy (kill) (Lucilia cuprina) | nematicidal efficacy (Meloidogyne incognita) | pest or weed control at 500 g/ha (Tetranychus urticae) | efficacy (Tetranychus urticae) | efficacy (Boophilus microplus) | efficacy (Phaedon cochleariae) | efficacy (Myzus persicae; application rate of 500 g/ha) | pest or weed control at 500 g/ha (Phaedon cochleariae; Phaedon cochleariae, 168 h, read-out: efficacy) | efficacy (Myzus persicae; application rate of 100 g/ha) | efficacy (Spodoptera frugiperda) |
| --- | --- | --- | --- | --- | --- | --- | --- | --- | --- | --- | --- | --- | --- | --- | --- |
| – | – | – | 3.72 | 3.80 | Cc1cc(F)c(-n2nc(OCC(F)(F)F)n(C3CC3)c2=O)cc1SCC(F)(F)F [Example 103] | – | 100% | – | 100% | 100% | – | – | – | – | – |
| – | – | – | 3.11 | 3.16 | COc1nn(-c2cc(SCC(F)(F)F)c(C)cc2F)c(=O)n1C1CC1 [Example 105] | – | 90% | – | 100% | 100% | – | – | – | – | – |
| – | – | – | 2.43 | 2.45 | COc1nn(-c2cc([S+]([O-])CC(F)(F)F)c(Cl)cc2F)c(=O)n1C1CC1 (stereo not drawn) [Example 115] | – | 90% | – | 100% | 100% | – | – | – | – | – |
| – | – | – | 3.30 | 3.20 | COc1nn(-c2cc(SCC(F)(F)F)c(C)cc2Cl)c(=O)n1C1CC1 [Example 116] | – | 100% | – | 90% | 100% | – | – | – | – | – |
| – | – | – | 2.30 | 2.28 | COc1nn(-c2cc([S+]([O-])CC(F)(F)F)c(C)cc2Cl)c(=O)n1C1CC1 (stereo not drawn) [Example 117] | – | 100% | – | 90% | 100% | – | – | – | – | – |
| – | – | – | 3.65 | 3.69 | CCc1nn(-c2cc(SCC(F)(F)F)c(C)cc2F)c(=S)n1C1CC1 [Example 502] | – | 90% | – | 90% | – | 83% | – | – | – | – |
